Experimental data as given in ChEMBL document CHEMBL1128412, “Mechanism-based development of new antimalarials: synthesis of derivatives of artemisinin attached to iron chelators” (J Med Chem, 1995).

Tests used:
[1] = system: Plasmodium falciparum; experiment: In vitro antimalarial activity against Plasmodium falciparum; format: functional, organism-based
[2] = system: Plasmodium falciparum; experiment: In vitro antimalarial activity against Plasmodium falciparum in 20 mM FeCl3; format: functional, organism-based

| Compound | IC50 [1] [µM] | IC50 [2] [µM] |
| --- | --- | --- |
| C[C@H]1[C@@H](OCCCOc2c(O)cccc2O)O[C@@H]2O[C@@]3(C)CC[C@H]4[C@H](C)CC[C@@H]1[C@@]24OO3 | 0.00767 | 0.00921 |
| C[C@H]1[C@@H](OCCCBr)O[C@@H]2O[C@@]3(C)CC[C@H]4[C@H](C)CC[C@@H]1[C@@]24OO3 | 0.00368 |  |
| C[C@H]1[C@@H](OCCCONC(=O)c2ccccc2)O[C@@H]2O[C@@]3(C)CC[C@H]4[C@H](C)CC[C@@H]1[C@@]24OO3 | 0.0236 | 0.0329 |
| C[C@H]1[C@@H](OCCCOc2coc(CO)cc2=O)O[C@@H]2O[C@@]3(C)CC[C@H]4[C@H](C)CC[C@@H]1[C@@]24OO3 | 0.00955 | 0.0168 |
| CCN(CC)C(=S)SCCCO[C@H]1O[C@@H]2O[C@@]3(C)CC[C@H]4[C@H](C)CC[C@@H]([C@H]1C)[C@@]24OO3 | 0.00765 |  |
| COC(=O)/C=C/c1ccc(OCCCO[C@H]2O[C@@H]3O[C@@]4(C)CC[C@H]5[C@H](C)CC[C@@H]([C@H]2C)[C@@]35OO4)c(O)c1 | 0.00478 | 0.00338 |
| C[C@H]1[C@@H](OCCC2Oc3cccc(O)c3O2)O[C@@H]2O[C@@]3(C)CC[C@H]4[C@H](C)CC[C@@H]1[C@@]24OO3 (some centres undefined) | 0.00664 |  |
| C[C@H]1[C@@H](OCCC2ON2C(=O)c2ccccc2O)O[C@@H]2O[C@@]3(C)CC[C@H]4[C@H](C)CC[C@@H]1[C@@]24OO3 (some centres undefined) | 0.00425 |  |
| C[C@H]1[C@@H](OCCCONC(=O)c2ccccc2O)O[C@@H]2O[C@@]3(C)CC[C@H]4[C@H](C)CC[C@@H]1[C@@]24OO3 | 0.0525 | 0.0487 |
| C[C@H]1[C@@H](OCCCOc2cccc(O)c2O)O[C@@H]2O[C@@]3(C)CC[C@H]4[C@H](C)CC[C@@H]1[C@@]24OO3 | 0.0127 |  |
| C[C@@H]1CC[C@H]2[C@@H](C)C(=O)O[C@@H]3O[C@@]4(C)CC[C@@H]1[C@]32OO4 [ARTEMISININ] | 0.00582 | 0.00541 |
| C[C@H]1[C@@H](O)O[C@@H]2O[C@@]3(C)CC[C@H]4[C@H](C)CC[C@@H]1[C@@]24OO3 [ARTENIMOL] | 0.0011 |  |
| O=C(NO)c1ccccc1 [BENZOHYDROXAMATE] | 17.6 |  |
| O=C(O)/C=C/c1ccc(O)c(O)c1 [CAFFEIC ACID] | 122 |  |
| O=c1cc(CO)occ1O [KOJIC ACID] | 1580 |  |
| COC(=O)/C=C/c1ccc(O)c(O)c1 [METHYLCAFFEATE] | 46.5 |  |
| Oc1cccc(O)c1O [PYROGALLOL] | 5.66 |  |
| O=C(NO)c1ccccc1O [SALICYLHYDROXAMIC ACID] | 107 |  |
